Experimental data from the supplement of paper PMC13380429.

Key:
Settings in all cases: 72 h
Calu-3 [1] = assay: drug sensitivity score (DSS) for viability; higher = more toxic; extreme values may be limits of the assay
HepG2 [2] = assay: as above
Caco-2 [3] = assay: as above
U2OS [4] = assay: as above
Vero E6 [5] = assay: as above
Calu-3 [6] = assay: cell viability relative to DMSO; higher = less toxic
HepG2 [7] = assay: as above
Caco-2 [8] = assay: as above
U2OS [9] = assay: as above
Vero E6 [10] = assay: as above
Calu-3 [11] = assay: relative viability EC50 (midpoint between 100% and the lowest measured viability); higher = less toxic
HepG2 [12] = assay: as above
Caco-2 [13] = assay: as above
U2OS [14] = assay: as above

Row | SMILES | drug sensitivity score (Calu-3 [1]) | drug sensitivity score (HepG2 [2]) | drug sensitivity score (Caco-2 [3]) | drug sensitivity score (U2OS [4]) | drug sensitivity score (Vero E6 [5]) | cell viability (Calu-3 [6]; 1 nM) [%] | cell viability (Calu-3 [6]; 10 nM) [%] | cell viability (Calu-3 [6]; 100 nM) [%] | cell viability (Calu-3 [6]; 1000 nM) [%] | cell viability (Calu-3 [6]; 10000 nM) [%] | cell viability (HepG2 [7]; 1 nM) [%] | cell viability (HepG2 [7]; 10 nM) [%] | cell viability (HepG2 [7]; 100 nM) [%] | cell viability (HepG2 [7]; 1000 nM) [%] | cell viability (HepG2 [7]; 10000 nM) [%] | cell viability (Caco-2 [8]; 1 nM) [%] | cell viability (Caco-2 [8]; 10 nM) [%] | cell viability (Caco-2 [8]; 100 nM) [%] | cell viability (Caco-2 [8]; 1000 nM) [%] | cell viability (Caco-2 [8]; 10000 nM) [%] | cell viability (U2OS [9]; 1 nM) [%] | cell viability (U2OS [9]; 10 nM) [%] | cell viability (U2OS [9]; 100 nM) [%] | cell viability (U2OS [9]; 1000 nM) [%] | cell viability (U2OS [9]; 10000 nM) [%] | cell viability (Vero E6 [10]; 1 nM) [%] | cell viability (Vero E6 [10]; 10 nM) [%] | cell viability (Vero E6 [10]; 100 nM) [%] | cell viability (Vero E6 [10]; 1000 nM) [%] | cell viability (Vero E6 [10]; 10000 nM) [%] | relative viability EC50 (Calu-3 [11]) [µM] | relative viability EC50 (HepG2 [12]) [µM] | relative viability EC50 (Caco-2 [13]) [µM] | relative viability EC50 (U2OS [14]) [µM]
1 | COc1cc2c(NC3CCN(CC4CCCCC4)CC3)nc(N3CCCN(C(C)C)CC3)nc2cc1OCCCN1CCCCC1 [UNC0631] | 4.3 | 6.1 | 1.6 | 1.2 | 3.8 | 103 | 97.2 | 104 | 103 | 18.9 | 104 | 111 | 100 | 96.3 | 0.2 | 97.7 | 104 | 103 | 84.4 | 83.2 | 102 | 102 | 102 | 98.7 | 74.2 | 93.4 | 97.1 | 88.6 | 93 | 50.9 | 3.36 | 2.89 | > 10 | –
2 | CC#CC(=O)N1CC[C@@H](n2c(=O)n(-c3ccc(Oc4ccccc4)cc3)c3c(N)ncnc32)C1 [ONO-4059] | 14.8 | 0 | 4.4 | 0 | 3.9 | 91.2 | 96.7 | 73.6 | 36 | 41.3 | 96.7 | 99.3 | 89.6 | 102 | 101 | 97.6 | 87 | 93.9 | 73.8 | 73.7 | 101 | 91.4 | 103 | 92.5 | 93.6 | 89.5 | 97.4 | 90.7 | 80.2 | 68.2 | 0.121 | > 10 | – | > 10
3 | O=C(O)c1ccccc1O [salicylic-acid] | 0 | 0 | 0 | 0 | – | 105 | 91.8 | 90.6 | 88.9 | 105 | 95.4 | 96.1 | 99.3 | 97 | 108 | 103 | 97 | 105 | 94.7 | 96.6 | 99.8 | 99.6 | 98.5 | 96.5 | 102 | – | – | – | – | – | > 10 | > 10 | > 10 | > 10
4 | O=S(=O)(F)Cc1ccccc1 [phenylmethylsulfonyl-fluoride] | 0 | 0 | 0 | 0 | – | 105 | 101 | 103 | 98.6 | 102 | 109 | 114 | 97.8 | 111 | 96.7 | 102 | 95.6 | 103 | 99.7 | 99.2 | 106 | 99.8 | 104 | 102 | 101 | – | – | – | – | – | > 10 | > 10 | > 10 | > 10
5 | COC(=O)N[C@H](C(=O)N1CCC[C@H]1c1ncc(-c2ccc(-c3ccc(-c4cnc([C@@H]5CCCN5C(=O)[C@@H](NC(=O)OC)C(C)C)[nH]4)cc3)cc2)[nH]1)C(C)C [daclatasvir] | 0 | 0 | 0.5 | 0 | – | 107 | 90.6 | 93.1 | 96.1 | 99.7 | 120 | 116 | 112 | 106 | 92 | 104 | 96.1 | 107 | 98.7 | 83.1 | 104 | 101 | 101 | 102 | 90.3 | – | – | – | – | – | > 10 | > 10 | > 10 | > 10
6 | CNc1cc2c(Nc3cccc(Br)c3)ncnc2cn1 | 9.5 | 1.6 | 4.4 | 0 | 6.2 | 101 | 98.4 | 93.9 | 53.5 | 37.7 | 93.8 | 105 | 95.9 | 100 | 64.9 | 102 | 92.5 | 91.2 | 84.5 | 49.7 | 99.4 | 97.6 | 98.3 | 92.2 | 89.6 | 92.4 | 97.3 | 88.4 | 72.4 | 53.1 | 0.47 | – | 1.55 | > 10
7 | O=C(O)c1cc(=O)c2ccccc2o1 [chromocarb] | 0 | 0 | 0 | – | – | 81.8 | 93.2 | 86.8 | 103 | 93.7 | 114 | 106 | 114 | 98.5 | 110 | 99.8 | 109 | 104 | 110 | 108 | – | – | – | – | – | – | – | – | – | – | > 10 | > 10 | > 10 | –
8 | O=P1(NCCCl)OCCCN1CCCl (configuration not stated) [ifosfamide] | 0 | 0 | 0 | – | – | 95.2 | 104 | 97.7 | 95.5 | 88.7 | 107 | 98.1 | 95.9 | 102 | 109 | 104 | 107 | 94.1 | 95.4 | 101 | – | – | – | – | – | – | – | – | – | – | > 10 | > 10 | > 10 | –
9 | Nc1cc(F)ccc1NC(=O)/C=C/c1cnn(C/C=C/c2ccccc2)c1 [RGFP966] | 4.1 | 4.4 | 1.4 | 2.2 | 2.2 | 99.3 | 106 | 89.2 | 87.6 | 51.4 | 93.2 | 105 | 96.4 | 87.2 | 52.4 | 100 | 98.9 | 92.6 | 91.2 | 76.7 | 92.9 | 104 | 92.2 | 89.5 | 68.6 | 104 | 106 | 105 | 95.9 | 66.2 | – | – | > 10 | –
10 | Cn1c(=O)c2c(ncn2C)n(C)c1=O [caffeine] | 0 | 0 | – | 0 | 0 | – | – | – | – | – | – | – | – | – | – | – | – | – | – | – | – | – | – | – | – | – | – | – | – | – | – | – | – | –
11 | CN[C@@H](C)C(=O)N[C@H]1CCCC[C@H]2CC[C@@H](C(=O)N[C@@H](c3ccccc3)c3cn(CCCCc4ccc(CCCCn5cc([C@@H](NC(=O)[C@@H]6CC[C@@H]7CCCC[C@H](NC(=O)[C@H](C)NC)C(=O)N76)c6ccccc6)nn5)cc4)nn3)N2C1=O [SM-164] | 0.9 | 0 | 2.7 | 0 | – | 103 | 90 | 99 | 89.2 | 81.3 | 106 | 104 | 98.6 | 96.9 | 90.1 | 105 | 109 | 85.5 | 84 | 98.4 | 99.5 | 108 | 102 | 98.8 | 99.7 | – | – | – | – | – | > 10 | > 10 | > 10 | > 10
12 | CNC(=O)c1cc(Oc2ccc(NC(=O)Nc3ccc(Cl)c(C(F)(F)F)c3)c(F)c2)ccn1 [regorafenib] | 0.8 | 9.3 | 1.2 | 2.4 | 1.8 | 102 | 98.8 | 105 | 104 | 74.2 | 102 | 106 | 94.4 | 59.8 | 16.5 | 100 | 105 | 97 | 108 | 66.3 | 96.9 | 103 | 100 | 99.8 | 54.5 | 94.7 | 98.9 | 104 | 102 | 60.6 | – | 1.03 | – | –
13 | Cc1cccc(C)c1NC(=O)c1ccc(N)cc1 [ameltolide] | 0 | 0 | 0.1 | 0 | – | 95.7 | 92.7 | 83 | 92.5 | 97.1 | 99.6 | 89.3 | 86.2 | 76 | 98.7 | 89.3 | 94.4 | 102 | 110 | 85.4 | 97 | 103 | 94.6 | 99.2 | 94.2 | – | – | – | – | – | > 10 | > 10 | > 10 | > 10
